What was measured:
acute brain slices = test: Late recurrent discharges in acute brain slices exposed to 0-Mg
KCC2 [1] = target: T1, KCC2 (Homo sapiens, UniProt Q9H2X9); test: Cell surface biotinylation of KCC2 in HEK-293 cells; format: cell-based; conditions: 15 min
T1 construct: expressed in transfected cells; host or cells: HEK-293 (ATCC CRL-1573), Lipofectamine 2000, used 48-72 h after transfection
T1 sequence (Q9H2X9 1-1116 isoform Q9H2X9-2): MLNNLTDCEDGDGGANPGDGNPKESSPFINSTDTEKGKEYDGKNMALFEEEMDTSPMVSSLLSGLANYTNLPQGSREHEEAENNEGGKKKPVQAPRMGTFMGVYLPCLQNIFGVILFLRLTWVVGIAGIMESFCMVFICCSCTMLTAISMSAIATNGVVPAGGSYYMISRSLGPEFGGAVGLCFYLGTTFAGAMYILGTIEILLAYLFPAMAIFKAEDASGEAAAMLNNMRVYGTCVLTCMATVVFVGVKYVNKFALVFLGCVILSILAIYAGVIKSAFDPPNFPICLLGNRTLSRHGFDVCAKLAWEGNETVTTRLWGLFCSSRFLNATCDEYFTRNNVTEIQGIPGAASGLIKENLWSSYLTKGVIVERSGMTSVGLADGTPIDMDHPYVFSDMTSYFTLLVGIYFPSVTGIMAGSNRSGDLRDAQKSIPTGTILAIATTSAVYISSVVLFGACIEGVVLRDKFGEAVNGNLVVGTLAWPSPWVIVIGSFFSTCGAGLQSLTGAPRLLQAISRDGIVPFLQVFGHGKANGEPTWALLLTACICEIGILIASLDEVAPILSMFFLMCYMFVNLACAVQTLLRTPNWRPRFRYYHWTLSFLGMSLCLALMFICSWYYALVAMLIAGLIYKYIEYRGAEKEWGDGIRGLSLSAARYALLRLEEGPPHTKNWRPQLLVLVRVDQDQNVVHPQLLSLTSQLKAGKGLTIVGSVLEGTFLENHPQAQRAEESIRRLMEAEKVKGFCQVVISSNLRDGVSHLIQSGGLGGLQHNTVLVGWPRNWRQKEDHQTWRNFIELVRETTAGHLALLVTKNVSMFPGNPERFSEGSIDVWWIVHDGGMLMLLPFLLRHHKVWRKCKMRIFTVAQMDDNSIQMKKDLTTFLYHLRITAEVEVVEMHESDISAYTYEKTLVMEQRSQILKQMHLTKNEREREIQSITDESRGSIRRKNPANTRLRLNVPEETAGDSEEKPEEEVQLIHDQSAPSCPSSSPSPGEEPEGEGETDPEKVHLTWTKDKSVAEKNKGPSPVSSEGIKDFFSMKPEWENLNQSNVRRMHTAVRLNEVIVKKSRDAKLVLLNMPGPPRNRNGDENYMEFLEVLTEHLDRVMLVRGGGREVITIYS
Method: Cell Culture and biotinylation. HEK-293 cells were purchased from ATCC (CRL-1573) and transfected with human KCC2 and GFP expression plasmids using Lipofectamine 2000. Cells were utilized for experimentation 48-72 h following transfection. Cells were biotinylated at 4° C. using NHS-Biotin. Following lysis and purification on immobilized avidin beads, cell surface and total fractions were subject to immunoblotting as outlined previously (Conway et al., 2017, supra).
The reliability of the biotinylation procedure was assessed via immunoblotting with antibodies against the cytosolic protein actin. Actin was present in the total lysates but was absent from the surface fractions (FIG. 2C).

[2] = system: panel of 144 protein kinases; test: Protein kinase panel (SelectScreen; Thermofisher); format: biochemical; conditions: 144 protein kinases incl. PKC isoforms, OSR1, SPAK, WNK
Method: Aliquots of HEK-293 cells expressing, KCC2 were exposed to 30 μM SSA, heated from 37-55° C. The remaining level of soluble native KCC2 at each temperature was measured by immunoblotting and normalized to the level seen at 37° C. which was given a value of 1. […] This panel included protein kinase C isoforms, OSR1, SPAK (STK39) and with-no-lysine kinases (WNK), all of which phosphorylate KCC2 on multiple residues to indirectly modify its activity (Kahle et al., 2013, supra; Smalley et al., 2020, supra).

KCC2 [3] = target: T1, KCC2; test: FLIPR thallium (Tl+) flux assay in HEK-293 cells expressing KCC2; format: cell-based; conditions: saturating concentration of 3 μM, 1% BCD vehicle
Method: A multi-tiered high-throughput screening assay was used, leveraging a proprietary library of 1.3 million small molecule compounds from AstraZeneca (Cambridge, UK) to identify chemical entities capable of activating KCC2. A single point concentration of 30 μM was used to identify potassium flux using an established thallium (TI+) influx FLIPR assay as the primary read out in HEK-293 cells overexpressing KCC2 (Cardarelli et al., Nat. Med. 23, 1394-1396 (2017); Conway et al., J Biol Chem 292, 21253-21263 (2017); Lee et al., 2022, supra).
Cell Culture and biotinylation. […]
FLIPR TI Flux assay. HEK-293 cells were washed with HBSS, and then incubated with loading buffer containing TI sensitive fluorescent dye (https://www.moleculardevices.com), 20 μM bumetanide 20 μM ouabain and 2.5 mM probenecid for 1 h at room temperature (RT) under control conditions or with drugs in the dark using a FlexStation 3 microplate reader (Molecular Devices) and imaged […] for 30 min. Stimulus buffer was added containing 5 mM K^+/0.5 mM Tl^+ and cells were imaged every 1.5 over a 190 second time course The initial rate Tl^+ uptake (Relative Fluorescence Units (RFU) per second) was determined following addition of the stimulus buffer as outlined previously (Conway et al., 2017, supra) (Lee et al., 2022, supra). […]

## C[C@@H]1CN(c2nc3c(c(Nc4ccc(C5CCCCC5)cc4)n2)COC3)CCO1 [Compound A, (R)—N-(4-cyclohexylphenyl)-2-(2-methylmorpholino)-5,7-dihydrofuro[3,4-d]pyrimidin-4-amine]
Acute brain slices
  development of late recurrent discharges (LRDs): reduced
KCC2 [1]; 0.3 μM
  level of KCC2 on the plasma membrane (surface/total): 94.5 ±8.4 % of control
KCC2 [1]; 3 μM
  level of KCC2 on the plasma membrane (surface/total): 104.7±8.4 % of control
[2]
  activity of kinase panel: did not modify the activity
KCC2 [3]
  maximum potentiation of KCC2: 90%
